Measurements reported in US10072026B2, “Crystalline form of 3-((1R,3s,5S)-3-((7-((5-methyl-1H-pyrazol-3-yl)amino)-1,6-naphthyridin-5-yl)amino)-8-azabicyclo[3.2.1]octan-8-yl)propanenitrile” (priority 2015, dated 2018).
Read-outs that look alike come from different tables or passages of the source.

Key:
[1] = biological target: JAK2 (Homo sapiens (Human), UniProt O60674); assay: LanthaScreen JAK biochemical assay (JAK2); conditions: for Ki: read-out: JAK 2 (pKi) (converted)
[2] = test system: IL-4 induced STAT6 phosphorylation in THP-1 human monocytic cells; assay: Cellular JAK potency assay, THP-1
[3] = biological target: Tyk2 (Homo sapiens (Human), UniProt P29597); assay: LanthaScreen JAK biochemical assay (Tyk2)
[4] = biological target: JAK1 (Homo sapiens (Human), UniProt P23458); assay: LanthaScreen JAK biochemical assay (JAK1)
[5] = test system: IL-13 induced STAT6 phosphorylation in BEAS-2B human lung epithelial cells; assay: AlphaScreen cellular JAK potency assay, BEAS-2B
[6] = IL-4 induced STAT6 phosphorylation, THP-1 cells
[7] = Homo sapiens, THP-1, read-out: THP-1 IL4 pIC50 (converted)
[8] = Homo sapiens, BEAS-2B, read-out: BEAS2B pIC50 (converted)
[9] = read-out: Tyk 2 (pKi) (converted)
[10] = read-out: JAK 1 (pKi) (converted)
[11] = IL-13 induced STAT6 phosphorylation, BEAS-2B cells
[12] = THP-1 cells, IL-4 induced STAT6 phosphorylation
[13] = BEAS-2B cells, IL-13 induced STAT6 phosphorylation

Sequence of JAK1 (P23458 whole entry): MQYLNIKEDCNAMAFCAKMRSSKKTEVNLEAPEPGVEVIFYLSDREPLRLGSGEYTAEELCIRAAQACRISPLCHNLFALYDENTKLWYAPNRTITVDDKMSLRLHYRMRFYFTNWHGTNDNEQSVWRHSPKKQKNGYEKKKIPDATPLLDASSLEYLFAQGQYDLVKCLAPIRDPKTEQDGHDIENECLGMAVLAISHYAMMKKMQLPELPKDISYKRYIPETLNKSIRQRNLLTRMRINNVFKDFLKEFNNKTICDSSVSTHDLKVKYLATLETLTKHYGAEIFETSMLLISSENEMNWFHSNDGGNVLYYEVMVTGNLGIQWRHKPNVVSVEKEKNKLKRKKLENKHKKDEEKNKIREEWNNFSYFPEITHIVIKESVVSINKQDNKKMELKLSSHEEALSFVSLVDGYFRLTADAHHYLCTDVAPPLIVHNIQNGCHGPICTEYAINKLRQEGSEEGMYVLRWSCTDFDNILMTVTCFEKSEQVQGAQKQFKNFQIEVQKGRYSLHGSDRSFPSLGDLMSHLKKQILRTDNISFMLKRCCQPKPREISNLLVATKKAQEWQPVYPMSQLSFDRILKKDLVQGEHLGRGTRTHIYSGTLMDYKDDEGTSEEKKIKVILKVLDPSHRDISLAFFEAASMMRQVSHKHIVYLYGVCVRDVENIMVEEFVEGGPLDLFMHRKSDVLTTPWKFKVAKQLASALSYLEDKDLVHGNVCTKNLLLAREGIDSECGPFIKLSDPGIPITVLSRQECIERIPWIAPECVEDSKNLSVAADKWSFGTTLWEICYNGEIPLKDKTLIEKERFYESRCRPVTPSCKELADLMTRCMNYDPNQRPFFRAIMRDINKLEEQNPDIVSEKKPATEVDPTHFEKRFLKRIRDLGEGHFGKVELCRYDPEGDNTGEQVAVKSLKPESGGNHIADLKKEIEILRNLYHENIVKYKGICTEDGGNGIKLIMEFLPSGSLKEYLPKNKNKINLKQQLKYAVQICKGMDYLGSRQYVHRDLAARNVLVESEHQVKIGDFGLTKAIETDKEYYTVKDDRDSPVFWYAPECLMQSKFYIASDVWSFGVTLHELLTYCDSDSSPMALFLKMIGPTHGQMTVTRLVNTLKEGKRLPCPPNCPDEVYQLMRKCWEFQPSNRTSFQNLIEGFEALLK
Sequence of Tyk2 (P29597 whole entry): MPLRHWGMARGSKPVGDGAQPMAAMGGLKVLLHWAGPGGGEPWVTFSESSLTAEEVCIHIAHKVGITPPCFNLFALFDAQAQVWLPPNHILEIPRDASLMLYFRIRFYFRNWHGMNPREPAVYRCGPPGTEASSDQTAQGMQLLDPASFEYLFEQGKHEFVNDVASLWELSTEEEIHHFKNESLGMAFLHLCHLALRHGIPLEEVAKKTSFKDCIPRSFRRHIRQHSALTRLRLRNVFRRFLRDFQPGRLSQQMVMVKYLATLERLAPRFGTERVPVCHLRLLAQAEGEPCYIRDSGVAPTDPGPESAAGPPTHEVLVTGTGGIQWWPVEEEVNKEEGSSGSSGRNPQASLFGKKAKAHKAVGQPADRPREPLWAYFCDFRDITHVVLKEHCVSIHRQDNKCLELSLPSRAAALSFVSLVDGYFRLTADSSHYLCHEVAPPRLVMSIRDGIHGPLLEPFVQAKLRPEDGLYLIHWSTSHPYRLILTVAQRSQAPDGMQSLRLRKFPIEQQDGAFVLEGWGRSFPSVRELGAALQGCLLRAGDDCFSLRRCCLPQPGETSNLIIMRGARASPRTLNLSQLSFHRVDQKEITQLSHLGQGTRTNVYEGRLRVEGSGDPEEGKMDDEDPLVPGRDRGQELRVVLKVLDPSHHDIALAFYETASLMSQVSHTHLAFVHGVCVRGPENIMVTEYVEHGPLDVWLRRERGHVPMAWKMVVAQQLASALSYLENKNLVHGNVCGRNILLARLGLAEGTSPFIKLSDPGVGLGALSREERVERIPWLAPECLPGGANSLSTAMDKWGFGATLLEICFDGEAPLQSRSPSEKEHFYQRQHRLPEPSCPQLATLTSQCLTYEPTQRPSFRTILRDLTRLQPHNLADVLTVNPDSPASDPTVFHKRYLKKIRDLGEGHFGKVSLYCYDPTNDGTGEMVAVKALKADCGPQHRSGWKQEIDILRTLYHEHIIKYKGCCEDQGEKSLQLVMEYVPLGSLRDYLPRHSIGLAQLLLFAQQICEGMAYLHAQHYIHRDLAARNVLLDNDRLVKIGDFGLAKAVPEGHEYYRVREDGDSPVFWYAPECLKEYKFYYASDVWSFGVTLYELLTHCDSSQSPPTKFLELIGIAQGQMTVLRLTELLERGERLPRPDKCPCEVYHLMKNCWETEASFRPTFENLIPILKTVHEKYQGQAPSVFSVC
Sequence of JAK2 (O60674 whole entry): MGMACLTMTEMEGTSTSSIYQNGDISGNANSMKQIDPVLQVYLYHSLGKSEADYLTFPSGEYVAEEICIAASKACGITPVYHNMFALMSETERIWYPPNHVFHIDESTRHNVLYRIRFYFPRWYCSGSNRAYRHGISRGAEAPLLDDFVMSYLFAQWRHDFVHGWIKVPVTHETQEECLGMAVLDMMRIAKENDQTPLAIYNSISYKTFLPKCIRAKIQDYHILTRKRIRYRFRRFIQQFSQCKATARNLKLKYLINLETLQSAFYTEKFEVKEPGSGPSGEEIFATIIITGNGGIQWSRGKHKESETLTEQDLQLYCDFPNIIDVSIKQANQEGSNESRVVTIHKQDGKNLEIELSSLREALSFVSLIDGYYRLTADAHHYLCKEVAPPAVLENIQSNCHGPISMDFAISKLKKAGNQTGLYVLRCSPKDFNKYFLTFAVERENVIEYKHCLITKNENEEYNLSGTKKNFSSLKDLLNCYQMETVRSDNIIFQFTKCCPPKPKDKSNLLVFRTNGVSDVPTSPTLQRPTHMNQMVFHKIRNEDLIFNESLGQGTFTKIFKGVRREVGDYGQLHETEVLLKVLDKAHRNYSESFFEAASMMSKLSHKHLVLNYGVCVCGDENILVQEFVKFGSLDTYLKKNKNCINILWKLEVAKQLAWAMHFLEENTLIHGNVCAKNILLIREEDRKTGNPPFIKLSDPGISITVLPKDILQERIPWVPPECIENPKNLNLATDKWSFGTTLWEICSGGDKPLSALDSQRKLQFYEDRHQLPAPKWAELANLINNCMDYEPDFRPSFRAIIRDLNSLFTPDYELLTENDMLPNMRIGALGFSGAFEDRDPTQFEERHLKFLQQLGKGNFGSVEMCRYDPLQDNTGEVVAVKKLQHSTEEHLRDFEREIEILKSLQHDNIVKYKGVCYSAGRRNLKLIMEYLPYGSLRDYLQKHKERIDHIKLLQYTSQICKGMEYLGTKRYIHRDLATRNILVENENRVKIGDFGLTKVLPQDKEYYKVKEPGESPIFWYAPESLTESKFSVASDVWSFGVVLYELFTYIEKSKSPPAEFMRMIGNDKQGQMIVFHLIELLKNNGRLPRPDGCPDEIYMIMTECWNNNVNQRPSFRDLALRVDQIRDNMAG

SMILES	JAK 2 (pKi) [1]	Tyk 2 (pKi) [3]	JAK 1 (pKi) [4]	IC50 [2, 7] [nM]	Ki [3, 9] [nM]	further results
COCCCN1[C@@H]2CC[C@H]1C[C@H](Nc1nc(Nc3cc(C)[nH]n3)cc3ncccc13)C2 [Example 1-15]	C (C represents a pKi value between 7 and 9 (Ki between 100 nM and 1 nM))	C (C represents a pKi value between 7 and 9 (Ki between 100 nM and 1 nM))	C (C represents a pKi value between 7 and 9 (Ki between 100 nM and 1 nM))	–	–	THP-1 IL4 pIC50 [2, 6]: C (C represents a pEC50 value<6.7 (EC50>200 nM))
Cc1cc(Nc2cc3ncccc3c(N[C@@H]3C[C@H]4CC[C@@H](C3)N4CC3(C#N)CC3)n2)n[nH]1 [Example 1-24]	–	–	–	31.6 to 200	0.1 to 1	IC50 [5, 8]: < 31.6 nM; Ki [4, 10]: 0.1 to 1 nM
Cc1cc(Nc2cc3ncccc3c(N[C@@H]3C[C@H]4CC[C@@H](C3)N4C3(CC#N)COC3)n2)n[nH]1 [Example 1-25]	–	–	–	< 31.6	–	IC50 [5, 8]: < 31.6 nM; Ki [3]: 0.1 to 1 nM; Ki [4, 10]: 0.1 to 1 nM
Cc1cc(Nc2cc3ncccc3c(N[C@@H]3C[C@H]4CC[C@@H](C3)N4C3CCCOC3=O)n2)n[nH]1 (stereo partly shown) [Example 1-28]	–	–	–	> 200	1 to 100	Ki [1]: 1 to 100 nM
Cc1cc(Nc2cc3ncccc3c(N[C@@H]3C[C@H]4CCC[C@@H](C3)N4CC(N)=O)n2)n[nH]1 [Example 1-37]	A (A represents a pKi value≥10 (Ki≤0.1 nM))	C (C represents a pKi value between 7 and 9 (Ki between 100 nM and 1 nM))	–	–	–	THP-1 IL4 pIC50 [2, 6]: B (B represents a pEC50 value between 6.7 and 7.5 (EC50 between 200 nM and 32 nM))
Cc1cc(Nc2cc3ncccc3c(N[C@@H]3C[C@H]4CCC[C@@H](C3)N4Cc3ccnc(C#N)c3)n2)n[nH]1 [Example 1-55]	–	C (C represents a pKi value between 7 and 9 (Ki between 100 nM and 1 nM))	–	–	–	BEAS2B pIC50 [5, 11]: B (B represents a pEC50 value between 6.7 and 7.5 (EC50 between 200 nM and 32 nM))
Cc1cc(Nc2cc3ncccc3c(N[C@@H]3C[C@H]4CC[C@@H](C3)N4C(=O)CF)n2)n[nH]1 [Example 2-2]	–	–	–	–	1 to 100	Ki [1]: 1 to 100 nM; Ki [4, 10]: 0.1 to 1 nM
Cc1cc(Nc2cc3ncccc3c(N[C@@H]3C[C@H]4CCC[C@@H](C3)N4C(=O)c3ccc(C#N)nc3)n2)n[nH]1 [Example 2-28]	–	B (B represents a pKi value between 9 and 10 (Ki between 1 nM and 0.1 nM))	B (B represents a pKi value between 9 and 10 (Ki between 1 nM and 0.1 nM))	–	–	BEAS2B pIC50 [5, 11]: C (C represents a pEC50 value<6.7 (EC50>200 nM))
CCOC(=O)N1[C@@H]2CCC[C@H]1C[C@H](Nc1nc(Nc3cc(C)[nH]n3)cc3ncccc13)C2 [Example 3-6]	–	B (B represents a pKi value between 9 and 10 (Ki between 1 nM and 0.1 nM))	B (B represents a pKi value between 9 and 10 (Ki between 1 nM and 0.1 nM))	–	–	THP-1 IL4 pIC50 [2, 6]: A (A represents a pEC50 value≥7.5 (EC50≤32 nM))
Cc1cc(Nc2cc3ncccc3c(N[C@@H]3C[C@H]4CC[C@@H](C3)N4S(C)(=O)=O)n2)n[nH]1 [Example 4-1]	–	–	–	< 31.6	0.1 to 1	Ki [1]: 0.1 to 1 nM
CCC1(S(=O)(=O)N2[C@@H]3CC[C@H]2C[C@H](Nc2nc(Nc4cc(C)[nH]n4)cc4ncccc24)C3)CC1 [Example 4-7]	–	–	–	< 31.6	0.1 to 1	Ki [1]: 0.1 to 1 nM; Ki [4]: 0.1 to 1 nM
Cc1cc(Nc2cc3ncccc3c(N[C@@H]3C[C@H]4CCC[C@@H](C3)N4S(=O)(=O)CC(C)C)n2)n[nH]1 [Example 4-17]	B (B represents a pKi value between 9 and 10 (Ki between 1 nM and 0.1 nM))	B (B represents a pKi value between 9 and 10 (Ki between 1 nM and 0.1 nM))	B (B represents a pKi value between 9 and 10 (Ki between 1 nM and 0.1 nM))	–	–	THP-1 IL4 pIC50 [2, 6]: A (A represents a pEC50 value≥7.5 (EC50≤32 nM))
Cc1cc(Nc2cc3nc(CO)ccc3c(N[C@@H]3C[C@H]4CC[C@@H](C3)N4S(C)(=O)=O)n2)n[nH]1 [Example 5-12]	–	–	–	31.6 to 200	0.1 to 1	–
Cc1cc(Nc2cc3nc(CN4CCOCC4)ccc3c(N[C@@H]3C[C@H]4CCC[C@@H](C3)N4CCC#N)n2)n[nH]1 [Example 5-26]	A (A represents a pKi value≥10 (Ki≤0.1 nM))	B (B represents a pKi value between 9 and 10 (Ki between 1 nM and 0.1 nM))	A (A represents a pKi value≥10 (Ki≤0.1 nM))	–	–	THP-1 IL4 pIC50 [2, 6]: A (A represents a pEC50 value≥7.5 (EC50≤32 nM))
Cc1cc(Nc2cc3nc(CN4CCN(C)CC4)ccc3c(N[C@@H]3C[C@H]4CC[C@@H](C3)N4S(=O)(=O)N3CCC3)n2)n[nH]1 [Example 5-39]	–	–	–	31.6 to 200	0.1 to 1	Ki [1]: 0.1 to 1 nM; Ki [4]: 0.1 to 1 nM
Cc1cc(Nc2cc3nc(CS(C)(=O)=O)ccc3c(N[C@@H]3C[C@H]4CC[C@@H](C3)N4CCF)n2)n[nH]1 [Example 5-41]	B (B represents a pKi value between 9 and 10 (Ki between 1 nM and 0.1 nM))	B (B represents a pKi value between 9 and 10 (Ki between 1 nM and 0.1 nM))	B (B represents a pKi value between 9 and 10 (Ki between 1 nM and 0.1 nM))	–	–	THP-1 IL4 pIC50 [2, 6]: C (C represents a pEC50 value<6.7 (EC50>200 nM))
Cc1cnc2cc(Nc3cc(C)[nH]n3)nc(N[C@@H]3C[C@H]4CC[C@@H](C3)N4S(=O)(=O)N3CC(C#N)C3)c2c1 [Example 6-4]	–	–	–	< 31.6	0.1 to 1	IC50 [5, 8]: < 31.6 nM; Ki [4, 10]: 0.1 to 1 nM
COc1cnc2cc(Nc3cc(C)[nH]n3)nc(N[C@@H]3C[C@H]4CC[C@@H](C3)N4CCC#N)c2c1 [Example 6-11]	B (B represents a pKi value between 9 and 10 (Ki between 1 nM and 0.1 nM))	B (B represents a pKi value between 9 and 10 (Ki between 1 nM and 0.1 nM))	B (B represents a pKi value between 9 and 10 (Ki between 1 nM and 0.1 nM))	–	–	THP-1 IL4 pIC50 [2, 12]: A (A represents a pEC50 value≥7.5 (EC50≤32 nM))
COc1cnc2cc(Nc3cc(C)[nH]n3)nc(N[C@@H]3C[C@H]4CC[C@@H](C3)N4S(C)(=O)=O)c2c1 [Example 6-18]	–	–	–	< 31.6	0.1 to 1	IC50 [5, 8]: < 31.6 nM
COc1cnc2cc(Nc3cc(C)[nH]n3)nc(N[C@@H]3C[C@H]4CC[C@@H](C3)N4S(=O)(=O)CC3(C#N)CC3)c2c1 [Example 6-23]	–	–	–	–	0.1 to 1	IC50 [5, 8]: 31.6 to 200 nM; Ki [4, 10]: 0.1 to 1 nM
COc1cnc2cc(Nc3cc(C)[nH]n3)nc(N[C@@H]3C[C@H]4CCC[C@@H](C3)N4C(=O)CN(C)C)c2c1 [Example 6-30]	B (B represents a pKi value between 9 and 10 (Ki between 1 nM and 0.1 nM))	B (B represents a pKi value between 9 and 10 (Ki between 1 nM and 0.1 nM))	B (B represents a pKi value between 9 and 10 (Ki between 1 nM and 0.1 nM))	–	–	THP-1 IL4 pIC50 [2, 12]: C (C represents a pEC50 value<6.7 (EC50>200 nM))
COC(=O)c1cnc2cc(Nc3cc(C)[nH]n3)nc(N[C@@H]3C[C@H]4CC[C@@H](C3)N4S(C)(=O)=O)c2c1 [Example 6-33]	–	–	–	31.6 to 200	0.1 to 1	–
CCS(=O)(=O)N1[C@@H]2CC[C@H]1C[C@H](Nc1nc(Nc3cc(C)[nH]n3)cc3ncc(C(=O)OC)cc13)C2 [Example 6-34]	–	–	–	< 31.6	0.1 to 1	–
COC(=O)c1cnc2cc(Nc3cc(C)[nH]n3)nc(N[C@@H]3C[C@H]4CC[C@@H](C3)N4C3CCOC3=O)c2c1 (stereo partly shown) [Example 6-35]	–	–	–	31.6 to 200	0.1 to 1	Ki [4, 10]: 0.1 to 1 nM
COc1ccnc2cc(Nc3cc(C)[nH]n3)nc(N[C@@H]3C[C@H]4CC[C@@H](C3)N4C3(CC#N)COC3)c12 [Example 7-10]	–	–	–	–	0.1 to 1	Ki [1]: 0.1 to 1 nM; Ki [4, 10]: 0.1 to 1 nM
Cc1cc(Nc2nc(N[C@@H]3C[C@H]4CCC[C@@H](C3)N4S(=O)(=O)c3cccnc3)c3cccnc3c2F)n[nH]1 [Example 8-12]	B (B represents a pKi value between 9 and 10 (Ki between 1 nM and 0.1 nM))	–	B (B represents a pKi value between 9 and 10 (Ki between 1 nM and 0.1 nM))	–	–	THP-1 IL4 pIC50 [2, 12]: A (A represents a pEC50 value≥7.5 (EC50≤32 nM)); BEAS2B pIC50 [5, 13]: A (A represents a pEC50 value≥7.5 (EC50≤32 nM))
Cc1cnc2c(F)c(Nc3cc(C)[nH]n3)nc(N[C@@H]3C[C@H]4CC[C@@H](C3)N4S(=O)(=O)c3cccnc3)c2c1 [Example 8-20]	C (C represents a pKi value between 7 and 9 (Ki between 100 nM and 1 nM))	C (C represents a pKi value between 7 and 9 (Ki between 100 nM and 1 nM))	B (B represents a pKi value between 9 and 10 (Ki between 1 nM and 0.1 nM))	–	–	THP-1 IL4 pIC50 [2, 12]: C (C represents a pEC50 value<6.7 (EC50>200 nM))
Cc1cnc2c(F)c(Nc3cc(C)[nH]n3)nc(N[C@@H]3C[C@H]4CCC[C@@H](C3)N4S(C)(=O)=O)c2c1 [Example 8-22]	B (B represents a pKi value between 9 and 10 (Ki between 1 nM and 0.1 nM))	–	B (B represents a pKi value between 9 and 10 (Ki between 1 nM and 0.1 nM))	–	–	THP-1 IL4 pIC50 [2, 12]: B (B represents a pEC50 value between 6.7 and 7.5 (EC50 between 200 nM and 32 nM)); BEAS2B pIC50 [5, 13]: B (B represents a pEC50 value between 6.7 and 7.5 (EC50 between 200 nM and 32 nM))
Cc1cc(Nc2cc3ncccc3c(N[C@@H]3C[C@H]4CCC[C@@H](C3)N4S(=O)(=O)c3cncc(F)c3)n2)n[nH]1 [Example 14, N^5-((1R,3s,5S)-9-((5-fluoropyridin-3-yl)sulfonyl)-9-azabicyclo[3.3.1]nonan-3-yl)-N^7-(5-methyl-1H-pyrazol-3-yl)-1,6-naphthyridine-5,7-diamine]	–	–	–	< 31.6	0.1 to 1	IC50 [5, 8]: < 31.6 nM
